According to patent US20110006261A1, “USE OF AN OZONE/OXYGEN MIXTURE AS PRIMARY ANTICANCER THERAPY THROUGH INTRAPERITONEAL INSUFFLATION” (priority 2007, published 2011):
Several values for one entry are separate records, joined by “and”; a condition that tells them apart may be missing. Equal values may be shown once.

Assays:
auricular VX2 carcinoma = experiment: Therapy of auricular VX2 carcinoma in rabbits by intraperitoneal gas insufflation (survival, tumor clearance); format: in vivo, New Zealand White (NZW) rabbit
[1] = Adverse effects: intraabdominal pressure, body weight, clinical signs
[2] = inhaled, mice; cited from earlier work

Compound: O=O [O2, pure medical oxygen]
- day of tumor clearance (auricular VX2 carcinoma; day after tumor cell inoculation): 68 days and 85 days
- mean survival time (auricular VX2 carcinoma; observation period 90 days after tumor cell inoculation): 51 days
- number of rabbits with tumor remission (auricular VX2 carcinoma; until day 90): two
- maximal drop of mean body weight ([1]; compared to mean body weight on day 14): 5.0%

Compound: O=[O+][O-] [ozone]
- adverse effect grade (weight loss) [2]: grade II
- weight loss [2]: up to 14%

Compound: medical ozone/oxygen (O3/O2) gas mixture
- severe side effects (sustained body weight reduction, gas embolism, fever, diarrhea, peritonitis) ([1]; rabbit, in vivo): no severe side effects
